Laboratory results from US20200278343A1, “DIRECT VISUALIZATION OF INTEGRATED STRESS RESPONSE ACTIVITY” (priority 2019, published 2020).

Experiments:
IRE1 [1] = assay: Xbp-1 splicing assay (RT-PCR) in HEK-293T cells; assay type: cell-based, human; details: 1 mM DTT, 2 h
[2] = tested on: Integrated Stress Response; assay: UL148-GFP visual probe for ISR inhibition in living cells; assay type: cell-based; details: ARPE-19 cells, UL148-GFP induced 18 hours with 100 ng/mL doxycycline hyclate; 200 nM ISRIB in FIG. 2B
Text: The disclosed technology is based on UL148, a viral endoplasmic reticulum (ER)-resident protein, which influences the expression of a viral glycoprotein complex required for cell entry. UL148 activates the Unfolded Protein Response (UPR), resulting in stress-regulated translation of ISR mRNAs such as ATF4. ISR/UPR activation by UL148 causes the formation of large membranous structures from the ER, at which UL148 itself accumulates. […] Other fluorescent proteins may include Allophycocyanin, Brainbow, Cameleon, FMN-binding fluorescent protein, Glutamate-sensitive fluorescent reporter, MCherry, Phycoerythrin, Red fluorescent protein, RoGFP, SmURFP, Synapto-pHluorin, and Yellow fluorescent protein. […] Instead, treatment with an ISR-inhibitor (e.g., ISRIB) causes UL148-GFP to be evenly distributed across the ER such that the GFP staining is uniform and reticular. Therefore, the simple task of determining whether GFP signal is present and whether it is uniform or punctate provides a facile read-out that can be automated to enable high throughput screening for novel small molecule inhibitors that inhibit the ISR.
ARPE-19 epithelial cells carrying a doxycycline inducible gene expression cassette encoding UL148-GFP were treated for 18 hours with 100 ng/mL doxycycline hyclate to induce UL148-GFP expression. In panel A, (FIG. 2A) UL148-GFP was induced in the absence of ISRIB. […]

PERK = assay: Western blot for PERK activation in stably transduced ARPE-19 cells; assay type: cell-based; details: 200 nM Tg, 4 h
IRE1 [3] = assay: Western blot for phospho-IRE1 (Ser724) in fibroblasts; assay type: cell-based, human; details: Tg-treated fibroblast lysates vs mock-treated, noninfected cells
[4] = tested on: protein synthesis (mRNA translation) in ARPE-19 cells; assay: Metabolic labeling (35S Met/Cys incorporation) in i148HA and i159HA ARPE-19 cells; assay type: cell-based; details: 24 h Dox induction, 30 min 35S Met/Cys pulse, phosphorimager analysis
Description: Having isolated stably transduced ARPE-19 cell populations, the inventors confirmed that that anti-HA immunoreactive polypeptides of the expected size for UL148 (i148^HA) or Rh159 (i159^HA) were induced upon treatment with 100 ng/ml doxycycline (Dox). Furthermore, expression of neither protein caused any overt reduction in cell viability or number, as measured by trypan blue exclusion following 24 h of Dox induction. The inventors therefore concluded that the i148^HA and i159^HA ARPE-19 cells were suitable to address whether UL148 might affect rates of mRNA translation in metabolic labeling studies. For these experiments, i148^HA and i159^HA cells were induced (or mock induced) for transgene expression for 24 h and then incubated in the presence of ^35S-labeled methionine and cysteine for 30 min. In parallel, labeling was also carried out using i159^HA cells that were incubated in the presence of either thapsigargin (Tg) or carrier alone, so as to provide positive and negative controls, respectively, for UPR induction.
Metabolic labeling. i159^HA or i148^HA cells were seeded at 2×10^5 cells per well in a 24-well cluster plate in Gibco Opti-MEM reduced serum medium (Thermo Fisher) supplemented with 2.5% tetracycline (Tet)-free FBS (Clontech 631101). […] The relative signal per lane was calculated using Bio-Rad 1-D analysis software by reading the signal volume (counts·mm^2) in each lane. […]

O[C@H](CS)[C@H](O)CS (racemic) [DTT, dithiothreitol]
splicing of the 26-nt intron from Xbp-1 mRNA (IRE1 [1]): spliced from nearly all the Xbp-1 mRNA

O=C(COc1ccc(Cl)cc1)NC1CCC(NC(=O)COc2ccc(Cl)cc2)CC1 (centres unmarked) [ISRIB]
formation of UL148 structures [2]: completely blocks the formation of UL148 structures

C/C=C(/C)C(=O)O[C@H]1C(C)=C2[C@H]([C@@H]1OC(=O)CCCCCCC)[C@@](C)(OC(C)=O)C[C@H](OC(=O)CCC)[C@@]1(O)[C@H]2OC(=O)[C@@]1(C)O [Tg, thapsigargin]
decreased mobility of the anti-PERK immunoreactive band (PERK autophosphorylation) (PERK): readily observed
phospho-IRE1 signal (IRE1 [3]): robust phospho-IRE1 signal

B1: UL148: viral ER-resident glycoprotein from human cytomegalovirus, ectopically expressed with a C-terminal HA tag (protein, UniProt F5H8Q3 21-316, looked up)
Membrane protein UL148: SRDYVHVRLLSYRGDPLVFKHTFSGVRRPFTELGWAACRDWDSMHCTPFWSTDLEQMTDSVRRYSTVSPGKEVTLQLHGNQTVQPSFLSFTCRLQLEPVVENVGLYVAYVVNDGERPQQFFTPQVDVVRFALYLETLSRIVEPLESGRLTVEFDTPDLALAPDLVSSLFVAGHGETDFYMNWTLRRSQTHYLEEMALQVEILKPRGVRHRAIIHHPKLQPGVGLWIDFCVYRYNARLTRGYVRYTLSPKARLPAKAEGWLVSLDRFIVQYLNTLLITMMAAIWARVLITYLVSRRR
modifications: C-terminal HA tag
decrease in protein synthesis compared to carrier-alone control [4]: ~50%
